Laboratory results reported in ChEMBL document CHEMBL1155835 (J Med Chem, 2008).

System: not listed separately
Test: Inhibition of hamster liver ALDH2
Set-up: species or system Cricetinae

| SMILES | IC50 [nM] |
| --- | --- |
| O=c1c(-c2ccc(O)cc2)coc2cc(OCCOCCOCCO)ccc12 | 40 |
| O=c1c(-c2ccc(O)cc2)coc2cc(O)ccc12 [DAIDZEIN] | 9000 |
| O=C(O)CCCCCCCCCOc1ccc2c(=O)c(-c3ccc(O)cc3)coc2c1 | 50 |
| O=C(O)CCCCCCCOc1ccc2c(=O)c(-c3ccc(O)cc3)coc2c1 | 40 |
| O=C(O)CCCCCCCCCCCOc1ccc2c(=O)c(-c3ccc(O)cc3)coc2c1 | 130 |
| O=C(O)COc1ccc2c(=O)c(-c3ccc(O)cc3)coc2c1 | 1200 |
| CCCCCCOc1ccc2c(=O)c(-c3ccc(O)cc3)coc2c1 | 1500 |
| CCCCCCCCCCCCOc1ccc2c(=O)c(-c3ccc(O)cc3)coc2c1 | > 9000 |
| CCOc1ccc2c(=O)c(-c3ccc(O)cc3)coc2c1 | 80 |
| O=C(O)CCCCOc1ccc2c(=O)c(-c3ccc(O)cc3)coc2c1 | 100 |

Target: T1, Aldehyde dehydrogenase, mitochondrial (Homo sapiens, UniProt P05091)
T1 sequence (P05091 whole entry): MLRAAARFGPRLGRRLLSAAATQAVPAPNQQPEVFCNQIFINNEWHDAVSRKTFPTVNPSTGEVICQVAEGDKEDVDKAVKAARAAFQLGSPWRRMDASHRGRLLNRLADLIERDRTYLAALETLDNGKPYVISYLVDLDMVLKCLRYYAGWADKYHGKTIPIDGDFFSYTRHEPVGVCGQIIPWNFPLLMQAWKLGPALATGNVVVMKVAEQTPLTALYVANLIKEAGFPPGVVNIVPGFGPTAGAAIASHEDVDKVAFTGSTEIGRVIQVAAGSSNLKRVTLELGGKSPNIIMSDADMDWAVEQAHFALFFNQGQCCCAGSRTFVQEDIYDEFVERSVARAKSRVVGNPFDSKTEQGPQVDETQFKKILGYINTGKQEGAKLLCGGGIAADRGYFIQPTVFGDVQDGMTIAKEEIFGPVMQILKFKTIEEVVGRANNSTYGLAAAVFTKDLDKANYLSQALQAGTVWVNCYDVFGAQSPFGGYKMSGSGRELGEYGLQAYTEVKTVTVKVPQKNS
Test: Inhibition of human recombinant ALDH2

| SMILES | Ki [nM] |
| --- | --- |
| COc1cc(O)c2c(=O)c(-c3ccc(O)cc3)coc2c1 [PRUNETIN] | 450 |
